pEC50, pIC50: −log10 of the molar value. In brackets after ≈: the same amount, converted by molar mass.
Assays:
[1] = Permeability of the compound by PAMPA; assay type: ADME
[2] = test system: adenain (human adenovirus serotype 5); assay: Inhibition of human adenovirus serotype 5 adenain protease expressed in Escherichia coli […] (DE3) using Ac-WLRGG*ARC(PT14)-NH2 as substrate by FLT assay
[3] = test system: adenain (human adenovirus serotype 8); assay: Inhibition of human adenovirus serotype 8 adenain protease expressed in Escherichia coli […] (DE3) using Ac-WLRGG*ARC(PT14)-NH2 as substrate by FLT assay
[4] = Equilibrium solubility of the compound at pH 6.8; assay type: physicochemical; conditions: buffer
Cathepsin K = biological target: T1, Cathepsin K (Homo sapiens, UniProt P43235)
T1 sequence (P43235 whole entry): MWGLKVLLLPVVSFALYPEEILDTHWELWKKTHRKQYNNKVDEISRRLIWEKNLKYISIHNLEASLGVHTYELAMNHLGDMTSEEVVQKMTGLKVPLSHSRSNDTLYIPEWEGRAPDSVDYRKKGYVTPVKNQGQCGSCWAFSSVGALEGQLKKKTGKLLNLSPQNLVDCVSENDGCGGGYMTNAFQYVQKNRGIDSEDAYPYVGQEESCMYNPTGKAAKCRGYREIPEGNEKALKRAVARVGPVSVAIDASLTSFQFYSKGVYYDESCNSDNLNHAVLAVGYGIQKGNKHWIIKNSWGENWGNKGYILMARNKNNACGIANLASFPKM
Description: Inhibition of human recombinant Cathepsin K using fluorogenic peptide substrate

Cathepsin B = Cathepsin B (Homo sapiens, UniProt P07858)
Description: Inhibition of human recombinant Cathepsin B using fluorogenic peptide substrate

Procathepsin L = Procathepsin L (Homo sapiens, UniProt P07711)
Description: Inhibition of human recombinant Cathepsin L using fluorogenic peptide substrate

Dipeptidyl peptidase 1 = Dipeptidyl peptidase 1 (Homo sapiens, UniProt P53634)
Description: Inhibition of human recombinant Cathepsin C using fluorogenic peptide substrate

Cathepsin S = Cathepsin S (Homo sapiens, UniProt P25774)
Description: Inhibition of human recombinant Cathepsin S using fluorogenic peptide substrate

Human adenovirus 5 = assay: Antiviral activity against human adenovirus 5 infected in HEK293 cells assessed as reduction in viral induced cytopathogenicity incubated for 5 days by Celltiter-Glo luminescent cell viability assay; assay type: functional, organism-based; conditions: Human mastadenovirus C, HEK293, 120 h

Sequence of Procathepsin L (P07711 whole entry): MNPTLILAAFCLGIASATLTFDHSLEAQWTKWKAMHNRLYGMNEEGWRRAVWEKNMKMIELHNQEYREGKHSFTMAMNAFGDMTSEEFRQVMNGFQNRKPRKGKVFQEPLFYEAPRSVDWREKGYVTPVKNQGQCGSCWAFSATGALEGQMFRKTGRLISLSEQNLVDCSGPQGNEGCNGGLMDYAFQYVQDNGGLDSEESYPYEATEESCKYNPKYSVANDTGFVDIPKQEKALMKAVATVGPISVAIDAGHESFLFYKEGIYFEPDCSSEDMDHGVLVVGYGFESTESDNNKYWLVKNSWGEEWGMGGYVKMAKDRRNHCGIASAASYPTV
Sequence of Cathepsin S (P25774 whole entry): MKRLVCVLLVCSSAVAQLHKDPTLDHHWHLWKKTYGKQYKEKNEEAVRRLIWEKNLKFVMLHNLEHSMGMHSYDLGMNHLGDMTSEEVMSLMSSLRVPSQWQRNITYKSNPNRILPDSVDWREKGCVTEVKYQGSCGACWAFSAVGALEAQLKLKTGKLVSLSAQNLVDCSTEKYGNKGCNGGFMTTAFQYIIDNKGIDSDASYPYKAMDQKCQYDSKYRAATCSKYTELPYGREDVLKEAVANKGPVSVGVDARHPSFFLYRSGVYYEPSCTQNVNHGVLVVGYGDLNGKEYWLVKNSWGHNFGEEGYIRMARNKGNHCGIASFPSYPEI
Sequence of Dipeptidyl peptidase 1 (P53634 25-134 limits assumed): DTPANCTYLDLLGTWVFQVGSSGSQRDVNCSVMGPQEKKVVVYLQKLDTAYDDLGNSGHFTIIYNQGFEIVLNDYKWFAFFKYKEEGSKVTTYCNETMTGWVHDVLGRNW
Sequence of Dipeptidyl peptidase 1 (P53634 231-394 limits assumed): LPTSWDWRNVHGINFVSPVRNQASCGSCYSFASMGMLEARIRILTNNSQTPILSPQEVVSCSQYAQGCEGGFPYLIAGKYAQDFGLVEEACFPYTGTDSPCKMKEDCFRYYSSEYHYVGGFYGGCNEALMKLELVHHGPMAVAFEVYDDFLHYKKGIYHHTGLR
Sequence of Dipeptidyl peptidase 1 (P53634 395-463 limits assumed): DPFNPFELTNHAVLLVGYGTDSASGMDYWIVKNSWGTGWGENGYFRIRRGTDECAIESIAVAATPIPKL

SMILES	logPm [1]	pIC50 [2]	pIC50 [3]	solubility thermodynamic [4] [µM]	pIC50 (Cathepsin K)	pIC50 (Cathepsin B)	pIC50 (Procathepsin L)	pIC50 (Dipeptidyl peptidase 1)	pIC50 (Cathepsin S)	pEC50 (Human adenovirus 5)
CS(=O)(=O)N[C@H](C(=O)N[C@@H](Cc1ccccc1)C(=O)NCC(=O)NCC#N)c1cccc(Cl)c1	-5.6	7.52	7.40	–	–	–	–	–	–	–
COc1ccc(C(=O)NCC(=O)NCC#N)cc1C(=O)C(C)c1cc(Cl)cc(Cl)c1 (configuration not stated)	–	6.51	6.02	–	–	–	–	–	–	–
COc1ccc(C(=O)NCC(=O)NCC#N)cc1C(=O)C(C)(C)c1cc(Cl)cc(Cl)c1	-5	7.52	7.40	50 (≈ 23.1 µg/mL)	< 4.00	< 4.00	< 4.00	< 4.00	< 4.00	–
CN(C)CCOc1ccc(C(=O)NCC(=O)NCC#N)cc1C(=O)C(C)(C)c1cc(Cl)cc(Cl)c1	-5.5	8.15	8.00	> 1000	< 4.00	< 4.00	4.00	< 4.00	< 4.00	–
COc1ccc(C(=O)NCc2ccnc(C#N)n2)cc1C(=O)C(C)(C)c1cc(Cl)cc(Cl)c1	–	9.70	9.22	–	5.02	5.09	5.25	4.18	6.00	< 4.30
CN(C)CCOc1ccc(C(=O)NCc2ccnc(C#N)n2)cc1C(=O)C(C)(C)c1cc(Cl)cc(Cl)c1	-4.2	10.00	10.00	490 (≈ 265 µg/mL)	4.72	4.09	< 4.96	4.74	4.62	5.41

Further lines, with some results ahead:

logPm [1]	pIC50 [2]	pIC50 [3]	solubility thermodynamic [4] [µM]	pIC50 (Cathepsin K)	pIC50 (Cathepsin B)	pIC50 (Procathepsin L)	pIC50 (Dipeptidyl peptidase 1)	pIC50 (Cathepsin S)	SMILES	pEC50 (Human adenovirus 5)
–	5.96	5.56	–	–	–	–	–	–	COc1ccc(C(=O)NCC(=O)NCC#N)cc1C(=O)Cc1cc(Cl)cc(Cl)c1	–
-4.1	9.00	9.00	–	< 4.00	< 4.00	< 4.00	< 4.00	< 4.00	COc1ccc(C(=O)NCC(=O)NC/C=C/S(C)(=O)=O)cc1C(=O)C(C)(C)c1cc(Cl)cc(Cl)c1	–
-5.6	8.00	8.00	–	4.02	< 4.00	< 4.00	< 4.00	< 4.00	CC(C)(C)[C@H](NC(=O)Cc1cc(Cl)cc(Cl)c1)C(=O)NCC(=O)NC/C=C/S(C)(=O)=O	5.35
–	> 9.00	> 9.00	–	4.14	< 4.00	< 4.00	< 4.00	< 4.00	CCN[C@H](C(=O)N[C@H](C(=O)NCC(=O)NC/C=C/S(C)(=O)=O)C(C)(C)C)c1cc(Cl)cc(Cl)c1	4.51
-5.5	8.70	8.40	–	< 4.00	< 4.00	< 4.00	< 4.00	< 4.00	CC[C@H](C(=O)N[C@H]1CCN(CC(=O)NC/C=C/S(C)(=O)=O)C1=O)c1cc(Cl)cc(Cl)c1	5.05
